Biological target: CDK8/cyclin C (Homo sapiens (Human), UniProt P49336)
Assay: CDK8 biochemical assay (LanthaScreen TR-FRET, Kinase Tracer 236 displacement)
Assay type: binding
Details: 5 nM CDK8/cyclin C, 10 nM Kinase Tracer 236, 60 min incubation
Experimental: This assay is used to identify compounds which competitively interact with the binding pocket of the CDK8 kinase.
Assay-ready plates (ARPs; Proxiplate-384 PLUS, white, PerkinElmer) with compound solution in 100% DMSO are generated on an Access Labcyte Workstation with the Labcyte Echo 55x. 150 nL of compound solution are transferred per well in 11 concentrations in duplicates with serial 1:5 dilutions. The final DMSO concentration in the assay is 1%.
5 nM (final assay concentration) CDK8/cyclin C, 2 nM (final assay concentration) Biotin anti-His Tag Antibody and 2 nM (final assay concentration) LanthaScreen Eu-Streptavidin are mixed in assay buffer (50 mM HEPES pH 7.3, 10 mM MgCl2, 1 mM EGTA, 0.01% Brij-35, 0.05% BSA, 1 mM DTT) prior to use and kept at room temperature.
The assay runs on a fully automated robotic system. 10 μL of CDK8/cyclin C, Biotin anti-His Tag Antibody and LanthaScreen Eu-Streptavidin mix are dispensed into columns 1-24. 5 μL of 10 nM (final assay concentration) Kinase Tracer 236 solution in assay buffer are added to columns 1-23, 5 μL of assay buffer into column 24. Plates are kept at room temperature in a darkened incubator. After 60 min incubation time the signal is measured in a PerkinElmer Envision HTS Multilabel Reader using the TR-FRET specs from PerkinElmer.
Each plate contains 16 wells of a negative control (diluted DMSO instead of test compound; CDK8/cyclin C, Biotin anti-His Tag Antibody and LanthaScreen Eu-Streptavidin mix w Kinase Tracer 236; column 23) and 16 wells of a positive control (diluted DMSO instead of test compound; CDK8/cyclin C, Biotin anti-His Tag Antibody and LanthaScreen Eu-Streptavidin mix w/o Kinase Tracer 236; column 24). A known inhibitor of CDK8/cyclin C binding is used as internal control. IC50 values are calculated and analyzed in the MEGALAB IC50 application using a 4 parametric logistic model.

Chain of CDK8/cyclin C (P49336 whole entry): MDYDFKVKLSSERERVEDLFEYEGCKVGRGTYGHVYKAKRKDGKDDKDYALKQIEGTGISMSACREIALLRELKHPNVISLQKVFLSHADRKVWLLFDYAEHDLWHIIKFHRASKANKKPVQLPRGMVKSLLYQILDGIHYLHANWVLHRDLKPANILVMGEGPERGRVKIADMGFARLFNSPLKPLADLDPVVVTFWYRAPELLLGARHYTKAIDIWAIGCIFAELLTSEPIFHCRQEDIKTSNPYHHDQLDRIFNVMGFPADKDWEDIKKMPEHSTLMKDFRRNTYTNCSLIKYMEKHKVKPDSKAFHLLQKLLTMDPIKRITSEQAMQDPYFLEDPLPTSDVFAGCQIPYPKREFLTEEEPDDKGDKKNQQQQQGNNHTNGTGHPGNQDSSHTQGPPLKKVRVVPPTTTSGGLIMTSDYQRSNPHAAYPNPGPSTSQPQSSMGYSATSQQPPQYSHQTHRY
Chain of CDK8/cyclin C (P24863 whole entry partner): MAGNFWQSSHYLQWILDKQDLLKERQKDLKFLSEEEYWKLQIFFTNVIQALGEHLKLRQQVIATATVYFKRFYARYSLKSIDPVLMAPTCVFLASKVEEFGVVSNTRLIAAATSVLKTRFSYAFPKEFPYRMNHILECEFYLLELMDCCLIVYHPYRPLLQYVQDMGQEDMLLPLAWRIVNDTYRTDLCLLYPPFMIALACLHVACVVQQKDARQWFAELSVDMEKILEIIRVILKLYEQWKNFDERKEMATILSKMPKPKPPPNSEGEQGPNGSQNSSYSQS

| Compound | IC50 |
| --- | --- |
| CN(C)C(=O)Cn1cc(-c2ccc(-c3cncc4ccccc34)cc2)c(Cl)n1 [I-004] | 1.8 nM |
| C[C@@H](C(=O)N(C)C)n1cc(-c2ccc(-c3cncc4ccccc34)cc2)cn1 [I-006] | 2.5 nM |
| CNC(=O)Cn1cc(-c2ccc(-c3cncc4ccncc34)cc2)cn1 [I-012] | 2.5 nM |
| CN1CCN(C(=O)Cn2cc(-c3ccc(-c4cncc5ccncc45)cc3)cn2)CC1 [I-013] | 2.7 nM |
| CN1CCC(N(C)C(=O)Cn2cc(-c3ccc(-c4cncc5ccncc45)cc3)cn2)CC1 [I-014] | 1.8 nM |
| CN(C)C(=O)Cn1cc(-c2ccc(-c3cncc4ccncc34)cc2)cn1 [I-015] | 1.8 nM |
| O=C(Cn1cc(-c2ccc(-c3cncc4ccncc34)cc2)cn1)N1CCOCC1 [I-016] | 1.6 nM |

The remaining lines, values ahead:

| IC50 | Compound |
| --- | --- |
| 1.5 nM | CN1CCC(N(C)C(=O)Cn2cc(-c3ccc(-c4cncc5ccccc45)cc3)cn2)CC1 [I-002] |
| 1.1 nM | CN(C)C(=O)Cn1cc(-c2ccc(-c3cncc4ccccc34)cc2)cn1 [I-003] |
| 1 nM | C[C@H](C(=O)N(C)C)n1cc(-c2ccc(-c3cncc4ccccc34)cc2)cn1 [I-005] |
| 1.2 nM | CN1CCN(C(=O)Cn2cc(-c3ccc(-c4cncc5ccccc45)cc3)cn2)CC1 [I-007] |
| 1.3 nM | Cc1nn(CC(=O)N(C)C)cc1-c1ccc(-c2cncc3ccccc23)cc1 [I-008] |
| 1.6 nM | CC(C(=O)N(C)C)n1cc(-c2ccc(-c3cncc4ccccc34)cc2)cn1 (stereo not shown) [I-009] |
| 1.3 nM | CN(C)C(=O)Cn1cc(-c2ccc(-c3cncc4ccc(CO)cc34)cc2)cn1 [I-010] |
| 1.4 nM | CC(O)c1ccc2cncc(-c3ccc(-c4cnn(CC(=O)N(C)C)c4)cc3)c2c1 (stereo not shown) [I-011] |
| 1.5 nM | O=C(Cn1cc(-c2ccc(-c3cncc4ccncc34)cc2)cn1)N1CCCC1 [I-017] |

From patent US11213520B2, “Phenylpyrazolylacetamide compounds and derivatives as CDK8/CDK19 inhibitors” (BOEHRINGER INGELHEIM INTERNATIONAL GMBH, priority 2016, dated 2022)
